System: CHO-K1 cells
Assay: RADD detection of BrdU incorporation into genomic DNA
Format: cell-based, Chinese hamster
Conditions: CHO-K1 cells sensitized 24 h, versus basal levels, FIG. 5A

O=c1[nH]c(=O)n([C@H]2C[C@H](O)[C@@H](CO)O2)cc1Br [BrdU, bromodeoxyuridine]
RADD mean fluorescence intensity of the nucleus (DNA lesions): increased levels of DNA lesions

— patent US20200277649A1, “BROAD SPECTRUM DETECTION OF DNA DAMAGE BY REPAIR ASSISTED DAMAGE DETECTION (RADD)” (University of South Alabama, priority 2017, published 2020)
